Data from BindingDB's records for doi:10.1021/jm0003891 (The R. W. Johnson Pharmaceutical Research Institute, 2001).
Values joined by “and” are separate entries in the source; they are usually repeats but may differ in a detail not shown here. Equal entries are not always repeated.

assay: In vitro binding affinity against alpha-2D adrenergic receptor of male Wistar rat

Row | Compound | Ki
1 | c1ccc2c(Cc3cnc[nH]3)csc2c1 | 0.09 nM
2 | Brc1cscc1Cc1cnc[nH]1 | 0.23 nM
3 | Cc1csc(C(C)c2cnc[nH]2)c1C (centres undefined) | 0.75 nM
4 | CC(c1cnc[nH]1)c1cscc1Br (centres undefined) | 0.08 nM
5 | Cc1cscc1C(C)c1cnc[nH]1 (centres undefined) | 0.39 nM
6 | Cc1cscc1Cc1cnc[nH]1 | 0.47 nM
7 | Cc1cccc([C@H](C)c2cnc[nH]2)c1C [4-[(1S)-1-(2,3-dimethylphenyl)ethyl]-1H-imidazole] | 0.015 nM
8 | CCc1cscc1Cc1cnc[nH]1 | 0.29 nM
9 | Cc1csc(C)c1Cc1cnc[nH]1 | 0.1 nM
10 | CC(c1cnc[nH]1)c1sccc1Br (centres undefined) | 0.96 nM and 0.18 nM
11 | Cc1cc(Cc2cnc[nH]2)c(C)s1 | 0.69 nM
12 | Cc1ccsc1Cc1cnc[nH]1 | 0.45 nM
13 | Cc1csc(Cc2cnc[nH]2)c1C | 0.17 nM
14 | c1ncc(Cc2ccsc2)[nH]1 | 3.1 nM
15 | CCC(c1cnc[nH]1)c1cscc1C (centres undefined) | 0.97 nM
16 | c1ccc2sc(Cc3cnc[nH]3)cc2c1 | 1.1 nM
17 | CC(c1cnc[nH]1)c1scc(Br)c1Br (centres undefined) | 0.43 nM

Row | Compound | Ki
18 | Cc1ccc(Cc2cnc[nH]2)s1 | 3.6 nM
19 | CCc1cscc1C(C)c1cnc[nH]1 (centres undefined) | 0.28 nM
20 | Brc1csc(Cc2cnc[nH]2)c1Br | 0.07 nM
21 | CCc1cc(Cc2cnc[nH]2)c(CC)s1 | 0.4 nM
22 | c1ncc(Cc2cc3c(s2)CCCC3)[nH]1 | 3.7 nM
23 | Clc1cc(Cc2cnc[nH]2)c(Cl)s1 | 0.088 nM
24 | CCC(c1cnc[nH]1)c1sccc1C (centres undefined) | 8.3 nM
25 | Brc1ccsc1Cc1cnc[nH]1 | 0.35 nM
26 | CCc1sccc1Cc1cnc[nH]1 | 0.07 nM
27 | COC(c1cnc[nH]1)c1sccc1Br (centres undefined) | 39 nM
28 | c1csc(Cc2cnc[nH]2)c1 | 8.7 nM
29 | CC(C)c1cc(Cc2cnc[nH]2)c(C(C)C)s1 | 12 nM
30 | Cc1sccc1C(C)c1cnc[nH]1 (centres undefined) | 2.3 nM
31 | Cc1ccsc1C(C)c1cnc[nH]1 (centres undefined) | 0.78 nM and 2.1 nM
32 | COC(c1cnc[nH]1)c1cscc1C (centres undefined) | 15.9 nM
33 | Cc1ccsc1C1(c2cnc[nH]2)CC1 | 1000 nM
34 | Cc1sccc1Cc1cnc[nH]1 | 0.44 nM
